From US20230146455A1, “TREATMENT OF INFLAMMATORY DISEASES WITH PEPTIDES AND PHARMACEUTICAL COMPOSITIONS” (Yuyu Pharma, Inc., priority 2020, published 2023) come the findings set out here.

Structures are written as SMILES. Several values for one entry are separate records, joined by “and”; a condition that tells them apart may be missing. Equal entries are not always repeated. Where a SMILES comes first, the peptide text is derived from it. [ ]: non-standard residue; d: D form. Hyp = O=C(O)[C@@H]1C[C@@H](O)CN1

The test system of the assay is VEGF-A. The assay can be described thus: Example 9 Luminex, LPS hPBMCs: VEGF-A. It counts as cell-based, human. Conditions: Bead VEGF-A; for Concentration: dilution 2.0. How it is done: Treatment Human PBMCs were pretreated with YY-101, YDE-011 and YDE-043 or reference compound; Xiidra® at various concentration (ranging from 1 nM to 100 uM) for 2 h before stimulation. An equal volume of 0.5% DMSO was used as a vehicle control. Then, the cells were treated with LPS at 5 ug/ml. The supernatants from treated cells were harvested at 24 h and placed in a 96 well for Luminex cytokine & chemokine profiling using a Luminex 200 multiplex assay (Luminex; R&D system, USA).
The main study arm with triplicate wells per group in a 24-well plate: • 1. Blank • 2. PBMC: 0.5% DMSO • 3. PBMC+LPS (5 ug/ml) • 4. PBMC+YY-101 100 uM • 5. PBMC+YY-101 10 uM • 6. PBMC+YY-101 1 uM • 7. PBMC+YY-101 0.1 uM • 8. PBMC+YY-101 0.01 uM • 9. PBMC+LPS (5 ug/ml)+Xiidra®100 uM • 10. PBMC+LPS (5 ug/ml)+Xiidra® 10 uM • 11. PBMC+LPS (5 ug/ml)+Xiidra® 1 uM • 12. PBMC+LPS (5 ug/ml)+Xiidra®0.1 uM • 13. PBMC+LPS (5 ug/ml)+Xiidra®0.01 uM • 14. PBMC+LPS (5 ug/ml)+Xiidra®0.001 uM • 15. PBMC+LPS (5 ug/ml)+YY-101 100 uM • 16. PBMC+LPS (5 ug/ml)+YY-101 10 uM • 17. PBMC+LPS (5 ug/ml)+YY-101 1 uM • 18. PBMC+LPS (5 ug/ml)+YY-101 0.1 uM • 19. PBMC+LPS (5 ug/ml)+YY-101 0.01 uM • 20. PBMC+LPS (5 ug/ml)+YY-101 0.001 uM • 21. PBMC+LPS (5 ug/ml)+YDE-011 100 uM • 22. PBMC+LPS (5 ug/ml)+YDE-011 10 uM • 23. PBMC+LPS (5 ug/ml)+YDE-011 1 uM • 24. PBMC+LPS (5 ug/ml)+YDE-011 0.1 uM • 25. PBMC+LPS (5 ug/ml)+YDE-011 0.01 uM • 26. PBMC+LPS (5 ug/ml)+YDE-011 0.001 uM • 27. PBMC+LPS (5 ug/ml)+YDE-043 100 uM • 28. PBMC+LPS (5 ug/ml)+YDE-043 10 uM • 29. PBMC+LPS (5 ug/ml)+YDE-043 1 uM • 30. PBMC+LPS (5 ug/ml)+YDE-043 0.1 uM • 31. PBMC+LPS (5 ug/ml)+YDE-043 0.01 uM • 32. PBMC+LPS (5 ug/ml)+YDE-043 0.001 uM
Multiplex assay was used to measure 30 cytokines and chemokines. The 1:2, 1:10 and 1:200 diluted cell supernatant and serial dilution of the standard were dispensed into a 96 well plate at 50 ul/well. Then, the pre-mixed cocktail of antibody-coated magnetic beads was dispensed at 50 ul/well and incubated at room temperature for 2 h in a horizontal orbital microplate shaker at 800±500 rpm. The beads were washed using a magnetic device to prevent loss. The biotin-antibody was dispensed in 50 ul of each well and incubated at room temperature for 1 h in a shaker at 800±500 rpm. After washing, streptavidin-PE was added at 50 ul/well and incubated at room temperature for 30 min in a shaker under the same conditions. Finally, after washing, wash buffer (100 ul/well) was added to the plate and incubated in a shaker for 2 min. The Luminex™ 200 setting were set according to the manufacturer's protocol. The data was calculated with a standard five-parameter logistic nonlinear regression analysis of the data (xPonent software 4.2, USA). The levels of cytokine/chemokine are normalized to the live cell counts (1×10^5 cells/mL) and presented as concentrations per mL (pg/mL or ng/mL).

Setting [1] is: PBMC + LPS(5 ug/ml) + test article 0.001 uM, Mean.
[2] abbreviates: PBMC + LPS(5 ug/ml) + test article 0.001 uM, single replicates.
Setting [3] is: PBMC + LPS(5 ug/ml) + test article 0.01 uM, Mean.
Setting [4] is: PBMC + LPS(5 ug/ml) + test article 0.01 uM, single replicates.
The mark [5] stands for this setting: PBMC + LPS(5 ug/ml) + test article 0.1 uM, Mean.
Setting [6] is: PBMC + LPS(5 ug/ml) + test article 0.1 uM, single replicates.
The mark [7] stands for this setting: PBMC + LPS(5 ug/ml) + test article 1 uM, Mean.
The mark [8] stands for this setting: PBMC + LPS(5 ug/ml) + test article 1 uM, single replicates.
Setting [9] is: PBMC + LPS(5 ug/ml) + test article 10 uM, Mean.
[10] abbreviates: PBMC + LPS(5 ug/ml) + test article 10 uM, single replicates.
[11] abbreviates: PBMC + LPS(5 ug/ml) + test article 100 uM, Mean.
[12] abbreviates: PBMC + LPS(5 ug/ml) + test article 100 uM, single replicates.

Regarding `CC(C)C[C@H](NC(=O)[C@H](CCC(N)=O)NC(=O)CNC(=O)[C@@H]1C[C@@H](O)CN1)C(=O)NCC(=O)O` [YDE-043] (H-[Hyp]GQLG-OH; N-terminus and C-terminus assumed), the conc/live cell is 0.7 pg/10^5 under setting [1]; 0.8 pg/10^5 (2×) and 0.6 pg/10^5 under setting [2]; 0.1 pg/10^5 under setting [3]; 0.1 pg/10^5 under setting [4]; 0.1 pg/10^5 under setting [5]; 0.1 pg/10^5 under setting [6]. The conc/live cell under setting [7] is 0.8 pg/10^5; the conc/live cell under setting [8] was 1.1 pg/10^5 and 0.7 pg/10^5 (2×); the conc/live cell under setting [9] is 0.7 pg/10^5; the conc/live cell under setting [10] was 0.0 pg/10^5 and 1.1 pg/10^5 and 0.9 pg/10^5; the conc/live cell under setting [11] is 0.4 pg/10^5; the conc/live cell under setting [12] is 0.8 pg/10^5 and 0.0 pg/10^5. Besides, the Concentration runs as follows: under setting [1], 3.6 pg/mL; under setting [2], 3.6 pg/mL; under setting [3], 0.6 pg/mL; under setting [4], 0.6 pg/mL; under setting [5], 0.6 pg/mL; under setting [6], 0.6 pg/mL. Further, the Concentration is, setting by setting: under setting [7], 4.4 pg/mL; under setting [8], 6.1 pg/ml and 3.6 pg/ml (2×); under setting [9], 5.5 pg/mL; under setting [10], 6.1 pg/mL and 4.9 pg/mL; under setting [11], 4.9 pg/mL; under setting [12], 4.9 pg/mL.
